Assay results from patent US20220249493A1, “PHARMACEUTICAL COMPOSITION COMPRISING UDENAFIL” (COREPHARM BIO CO., LTD., priority 2019, published 2022).
In brackets after ≈: the same amount, converted by molar mass.

Assay: Udenafil solubility test at different pHs
Type: physicochemical
Conditions: thermodynamic from solid; in purified water (Comparative Example 1)
Procedure: A pH adjusting agent was added to 5 ml of purified water, and the mixture was stirred for 10 minutes, and then udenafil was added thereto, thus preparing the solutions shown in Table 1 above.
Detector: UV detector (292 nm)
Column temperature: 30° C.
Mobile phase: 2.72 g of KH2PO4 dissolved in 1 L of purified water (A); acetonitrile (B); A:B=700:300

solubility at 2 h: ~120 µg/mL (≈ 232 µM)
Structure (SMILES): CCCOc1ccc(S(=O)(=O)NCCC2CCCN2C)cc1-c1nc2c(CCC)nn(C)c2c(=O)[nH]1 (stereo not shown) [Udenafil, 5-[2-propyloxy-5-(1-methyl-2-pyrrolidinyleneamidosulfonyl)phenyl]-1-methyl-1-propyl-1,6-dihydro-7H-pyrazolo(4,3-d)pyrimidin-7-one]
